Source: patent publication US12201679B2, “Epitope-targeted peptide immunostimulants” (priority 2019, dated 2025)
Where two headings read alike, the source gives them in different places. Bridge positions count the residues as written; N and C are the ends. Square brackets hold non-standard residues; d marks the D form. Triazole bridges read from a SMILES are 1,4-linked. Peptide text beside a SMILES is read from it. * marks the point of attachment. Biotin = O=C1N[C@H]2[C@H](CS[C@H]2CCCCC(=O)*)N1; PEG10 = NCCOCCOCCOCCOCCOCCOCCOCCOCCOCCOCCC(=O)O; Lys(N3) = [N-]=[N+]=NCCCC[C@H](N)C(=O)O; Orn(N3) = [N-]=[N+]=NCCC[C@H](N)C(=O)O; Phe(4-F) = N[C@@H](Cc1ccc(F)cc1)C(=O)O; PEG5 = NCCOCCOCCOCCOCCOCCC(=O)O; Pra = C#CC[C@H](N)C(=O)O

What was measured:
[1] = molecular target: full-length recombinant MrkA protein (Klebsiella pneumoniae, UniProt P12267); type: binding; conditions: for affinities to MrkA: ELISA, stated as 'likely'; for binding to full-length MrkA compared to cy(LLFFF): sandwich ELISA, alanine scan and analogues
Excerpt: HPraGly is present before X1 in each peptide and Az4 follows X5 in each peptide.

[2] = Isocratic point, elution from C18 prep-scale column; type: physicochemical; conditions: elution from C18 column
Procedure: PCC compounds were purified on a Waters Autopurification system, which isolated compounds based on MS peaks corresponding to protonated [M+1H]^+ and [M+2H]^2+, and/or sodium adducts [M+Na]^+ and [M+2Na]^2+. The isocratic points of PCCs were determined based on the elution of the compound from a C18 prep-scale column. Synthetic epitopes were either purified on the Waters Autopurification System, or by semi-preparative HPLC and then using matrix-assisted laser desorption/ionization mass spectroscopy to identify fractions with the desired m/z ratio. The resulting peptides were lyophilized, the yield determined by mass difference or UV-visible absorbance, and resuspended at a concentration of up to 10 mM peptide in DMSO. Peptides were stored at −80° C. before thawing for each use.

Molecule	Relative affinity (ratio of ELISA signal versus cy(LLFFF)) ([1]; ELISA 2, [MrkA] 25 nM)	Isocratic point (%) [2] [%]	binding to full-length MrkA compared to cy(LLFFF) [1]	further results
CC(C)C[C@@H]1NC(=O)[C@@H](NC(=O)CCOCCOCCOCCOCCOCCOCCOCCOCCOCCOCCNC(=O)CCCC[C@@H]2SC[C@@H]3NC(=O)N[C@@H]32)Cc2cn(nn2)CCCC[C@@H](C(N)=O)NC(=O)[C@H](Cc2ccccc2)NC(=O)[C@H](Cc2ccccc2)NC(=O)[C@H](Cc2ccccc2)NC(=O)[C@H](CC(C)C)NC1=O [Ref. compound] ({Biotin-PEG10}-[Pra]LLFFF[Lys(N3)]-NH2; triazole 1-7)	1.00	–	–	Relative affinity (ratio of ELISA signal versus cy(LLFFF)) ([1]; ELISA 1, [MrkA] for ELISA N/A): 1.00; Relative affinity (ratio of ELISA signal versus cy(LLFFF)) ([1]; ELISA 3, [MrkA] 50 nM): 1.00; Relative affinity (ratio of ELISA signal versus cy(LLFFF)) ([1]; ELISA 4, [MrkA] 100 nM): 1.00; Relative affinity (ratio of ELISA signal versus cy(LLFFF)) ([1]; ELISA 5, [MrkA] 25 nM): 1.00; Relative affinity (ratio of ELISA signal versus cy(LLFFF)) ([1]; ELISA 6, [MrkA] 25 nM): 1.00; Isocratic point (%) ([2]; N-terminal tag Bio-Peg10-peg10-): 74.53%; Isocratic point (%) ([2]; N-terminal tag Bio-peg5-): 78.85%; Isocratic point (%) ([2]; N-terminal tag Bio-peg10-): 75.88%
CC(C)C[C@@H]1NC(=O)[C@H](C)NC(=O)[C@@H](NC(=O)CCOCCOCCOCCOCCOCCOCCOCCOCCOCCOCCNC(=O)CCCC[C@@H]2SC[C@@H]3NC(=O)N[C@@H]32)Cc2cn(nn2)CCCC[C@@H](C(N)=O)NC(=O)[C@H](Cc2ccccc2)NC(=O)[C@H](Cc2ccccc2)NC(=O)[C@H](Cc2ccccc2)NC1=O [compound 2] ({Biotin-PEG10}-[Pra]ALFFF[Lys(N3)]-NH2; triazole 1-7)	0.53	65.55	–	–
CC(C)C[C@@H]1NC(=O)[C@@H](NC(=O)CCOCCOCCOCCOCCOCCOCCOCCOCCOCCOCCNC(=O)CCCC[C@@H]2SC[C@@H]3NC(=O)N[C@@H]32)Cc2cn(nn2)CCCC[C@@H](C(N)=O)NC(=O)[C@H](Cc2ccccc2)NC(=O)[C@H](Cc2ccccc2)NC(=O)[C@H](Cc2ccccc2)NC(=O)[C@H](C)NC1=O [compound 3] ({Biotin-PEG10}-[Pra]LAFFF[Lys(N3)]-NH2; triazole 1-7)	0.26	66.00	–	–
CC(C)C[C@@H]1NC(=O)[C@H](CC(C)C)NC(=O)[C@@H](NC(=O)CCOCCOCCOCCOCCOCCOCCOCCOCCOCCOCCNC(=O)CCCC[C@@H]2SC[C@@H]3NC(=O)N[C@@H]32)Cc2cn(nn2)CCCC[C@@H](C(N)=O)NC(=O)[C@H](Cc2ccccc2)NC(=O)[C@H](Cc2ccccc2)NC(=O)[C@H](C)NC1=O [compound 4] ({Biotin-PEG10}-[Pra]LLAFF[Lys(N3)]-NH2; triazole 1-7)	0.59	70.97	–	–
CC(C)C[C@@H]1NC(=O)[C@@H](NC(=O)CCOCCOCCOCCOCCOCCOCCOCCOCCOCCOCCNC(=O)CCCC[C@@H]2SC[C@@H]3NC(=O)N[C@@H]32)Cc2cn(nn2)CCCC[C@@H](C(N)=O)NC(=O)[C@H](Cc2ccccc2)NC(=O)[C@H](C)NC(=O)[C@H](Cc2ccccc2)NC(=O)[C@H](CC(C)C)NC1=O [compound 5] ({Biotin-PEG10}-[Pra]LLFAF[Lys(N3)]-NH2; triazole 1-7)	0.10	66.00	–	–
CC(C)C[C@@H]1NC(=O)[C@@H](NC(=O)CCOCCOCCOCCOCCOCCOCCOCCOCCOCCOCCNC(=O)CCCC[C@@H]2SC[C@@H]3NC(=O)N[C@@H]32)CCCCn2cc(nn2)C[C@@H](C(N)=O)NC(=O)[C@H](C)NC(=O)[C@H](Cc2ccccc2)NC(=O)[C@H](Cc2ccccc2)NC(=O)[C@H](CC(C)C)NC1=O [compound 6] ({Biotin-PEG10}-[Lys(N3)]LLFFA[Pra]-NH2; triazole 1-7)	0.04	64.43	–	–
C[C@@H]1NC(=O)[C@H](C)NC(=O)[C@@H](NC(=O)CCOCCOCCOCCOCCOCCOCCOCCOCCOCCOCCNC(=O)CCCC[C@@H]2SC[C@@H]3NC(=O)N[C@@H]32)Cc2cn(nn2)CCCC[C@@H](C(N)=O)NC(=O)[C@H](Cc2ccccc2)NC(=O)[C@H](Cc2ccccc2)NC(=O)[C@H](Cc2ccccc2)NC1=O [compound 7] ({Biotin-PEG10}-[Pra]AAFFF[Lys(N3)]-NH2; triazole 1-7)	–	54.65	–	Relative affinity (ratio of ELISA signal versus cy(LLFFF)) ([1]; ELISA 3, [MrkA] 50 nM): 0.15
CC(C)C[C@@H]1NC(=O)[C@@H](NC(=O)CCOCCOCCOCCOCCOCCOCCOCCOCCOCCOCCNC(=O)CCCC[C@@H]2SC[C@@H]3NC(=O)N[C@@H]32)Cc2cn(nn2)CCCC[C@@H](C(N)=O)NC(=O)[C@H](Cc2ccccc2)NC(=O)[C@H](Cc2ccccc2)NC(=O)[C@H](Cc2ccccc2)NC1=O [compound 8] ({Biotin-PEG10}-[Pra]LFFF[Lys(N3)]-NH2; triazole 1-6)	–	61.84	–	Relative affinity (ratio of ELISA signal versus cy(LLFFF)) ([1]; ELISA 3, [MrkA] 50 nM): 0.46
CC(C)C[C@@H]1NC(=O)[C@@H](NC(=O)CCOCCOCCOCCOCCOCCOCCOCCOCCOCCOCCNC(=O)CCCC[C@@H]2SC[C@@H]3NC(=O)N[C@@H]32)Cc2cn(nn2)CCC[C@@H](C(N)=O)NC(=O)[C@H](Cc2ccccc2)NC(=O)[C@H](Cc2ccccc2)NC(=O)[C@H](Cc2ccccc2)NC(=O)[C@H](CC(C)C)NC1=O [compound 10] ({Biotin-PEG10}-[Pra]LLFFF[Orn(N3)]-NH2; triazole 1-7)	–	76.89	–	Relative affinity (ratio of ELISA signal versus cy(LLFFF)) ([1]; ELISA 3, [MrkA] 50 nM): 0.89
CC(C)C[C@@H]1NC(=O)[C@@H](NC(=O)CCOCCOCCOCCOCCOCCOCCOCCOCCOCCOCCNC(=O)CCCC[C@@H]2SC[C@@H]3NC(=O)N[C@@H]32)Cc2cn(nn2)CCCC[C@@H](C(N)=O)NC(=O)[C@H](Cc2ccc(F)cc2)NC(=O)[C@H](Cc2ccccc2)NC(=O)[C@H](Cc2ccccc2)NC(=O)[C@H](CC(C)C)NC1=O [compound 11] ({Biotin-PEG10}-[Pra]LLFF[Phe(4-F)][Lys(N3)]-NH2; triazole 1-7)	–	75.53	–	Relative affinity (ratio of ELISA signal versus cy(LLFFF)) ([1]; ELISA 3, [MrkA] 50 nM): 0.88
C[C@@H](O)[C@@H]1NC(=O)[C@@H](NC(=O)CCOCCOCCOCCOCCOCCNC(=O)CCCC[C@@H]2SC[C@@H]3NC(=O)N[C@@H]32)Cc2cn(nn2)CCCC[C@@H](C(N)=O)NC(=O)[C@H](Cc2ccccc2)NC(=O)[C@H](Cc2ccccc2)NC(=O)[C@H](Cc2ccccc2)NC(=O)[C@H]([C@@H](C)O)NC1=O [compound 13] ({Biotin-PEG5}-[Pra]TTFFF[Lys(N3)]-NH2; triazole 1-7)	–	53.40	–	Relative affinity (ratio of ELISA signal versus cy(LLFFF)) ([1]; ELISA 4, [MrkA] 100 nM): 0.04
CC(C)C[C@@H]1NC(=O)[C@@H](NC(=O)CCOCCOCCOCCOCCOCCOCCOCCOCCOCCOCCNC(=O)[C@H](CCCNC(=N)N)NC(=O)[C@H](CCCNC(=N)N)NC(=O)[C@H](CCCNC(=N)N)NC(=O)CCOCCOCCOCCOCCOCCOCCOCCOCCOCCOCCNC(=O)CCCC[C@@H]2SC[C@@H]3NC(=O)N[C@@H]32)Cc2cn(nn2)CCCC[C@@H](C(N)=O)NC(=O)[C@H](Cc2ccccc2)NC(=O)[C@H](Cc2ccccc2)NC(=O)[C@H](Cc2ccccc2)NC(=O)[C@H](CC(C)C)NC1=O [compound 16] ({Biotin-PEG10}-RRR[PEG10][Pra]LLFFF[Lys(N3)]-NH2; triazole 5-11)	–	45.02	–	Relative affinity (ratio of ELISA signal versus cy(LLFFF)) ([1]; ELISA 5, [MrkA] 25 nM): 0.90
CC(C)C[C@@H]1NC(=O)[C@@H](NC(=O)CCOCCOCCOCCOCCOCCOCCOCCOCCOCCOCCNC(=O)[C@H](CCCNC(=N)N)NC(=O)[C@H](CCCNC(=N)N)NC(=O)[C@H](CCCNC(=N)N)NC(=O)[C@H](CCCNC(=N)N)NC(=O)[C@H](CCCNC(=N)N)NC(=O)[C@H](CCCNC(=N)N)NC(=O)CCOCCOCCOCCOCCOCCOCCOCCOCCOCCOCCNC(=O)CCCC[C@@H]2SC[C@@H]3NC(=O)N[C@@H]32)Cc2cn(nn2)CCCC[C@@H](C(N)=O)NC(=O)[C@H](Cc2ccccc2)NC(=O)[C@H](Cc2ccccc2)NC(=O)[C@H](Cc2ccccc2)NC(=O)[C@H](CC(C)C)NC1=O [compound 17] ({Biotin-PEG10}-RRRRRR[PEG10][Pra]LLFFF[Lys(N3)]-NH2; triazole 8-14)	–	39.82	–	Relative affinity (ratio of ELISA signal versus cy(LLFFF)) ([1]; ELISA 5, [MrkA] 25 nM): 1.22
CC(C)C[C@@H]1NC(=O)[C@H](CCCNC(=N)N)NC(=O)[C@H](Cc2c[nH]cn2)NC(=O)[C@H](C(C)C)NC(=O)CNC(=O)[C@@H](NC(=O)CCOCCOCCOCCOCCOCCNC(=O)CCCC[C@@H]2SC[C@@H]3NC(=O)N[C@@H]32)Cc2cn(nn2)CCCC[C@@H](C(N)=O)NC1=O [cy(GVHRL)] ({Biotin-PEG5}-[Pra]GVHRL[Lys(N3)]-NH2; triazole 1-7)	–	–	lower affinities	affinities to MrkA [1]: ~1 µM
C[C@@H](O)[C@@H]1NC(=O)[C@@H](NC(=O)CCOCCOCCOCCOCCOCCNC(=O)CCCC[C@@H]2SC[C@@H]3NC(=O)N[C@@H]32)Cc2cn(nn2)CCCC[C@@H](C(N)=O)NC(=O)[C@H](Cc2ccccc2)NC(=O)[C@H](Cc2ccccc2)NC(=O)[C@H](Cc2ccccc2)NC(=O)[C@H]([C@@H](C)O)NC1=O [cy(TTFFF)] ({Biotin-PEG5}-[Pra]TTFFF[Lys(N3)]-NH2; triazole 1-7; N-terminus assumed)	–	–	lower affinities	affinities to MrkA [1]: ~1 µM
CC(C)C[C@@H]1NC(=O)[C@H](Cc2c[nH]cn2)NC(=O)[C@H](CCCNC(=N)N)NC(=O)[C@H](Cc2ccc(O)cc2)NC(=O)[C@@H](NC(=O)CCOCCOCCOCCOCCOCCNC(=O)CCCC[C@@H]2SC[C@@H]3NC(=O)N[C@@H]32)Cc2cn(nn2)CCCC[C@@H](C(N)=O)NC(=O)CNC1=O [cy(YRHLG)] ({Biotin-PEG5}-[Pra]YRHLG[Lys(N3)]-NH2; triazole 1-7)	–	–	lower affinities	affinities to MrkA [1]: ~1 µM
cy(ALFFF) (cyclic)	–	–	Modestly lower binding	–
cy(LAFFF) (cyclic)	–	–	Modestly lower binding	–
cy(LLAFF) (cyclic)	–	–	Modestly lower binding	–
